In US8859546B2, “Picolinamide inhibitors of kinases” (AbbVie Inc., priority 2011, dated 2014):

target: T1, ALK (Homo sapiens, UniProt Q9UM73); assay: ALK kinase assay (HTRF), apparent Ki; type: biochemical; settings: apparent Ki from IC50 by Cheng-Prusoff; ALK (Millipore), 50 μM ATP; read-out: HTRF_ALK Human-Ki
T1 construct: purchased Millipore
Description: The following procedure is used to determine ALK Activity.
ALK kinase assays were conducted with the indicated final concentrations unless otherwise specified. In 384 well black plates (Axygen), 8 μl of compound (2% DMSO) was incubated with 8 μl Lck-peptide substrate (0.5 μM, biotin-Ahx-GAEEEIYAAFFA-COOH) and 8 μl of a mixture of ALK (3 nM, Millipore) and ATP (50 μM) in reaction buffer (50 mM Hepes, pH 7.4; 10 mM MgCl2; 2 mM MnCl2; 0.1 mM sodium orthovanadate; 0.01% BSA and 1 mM DTT (added fresh before assay) for 1 h at room temperature. Reactions were then quenched by the addition of 30 μl quench solution (streptavidin-allophycocyanin and Europium-cryptate PT66 monoclonal antibody in 40 mM Hepes, pH 7.4; 480 mM KF; 66 mM EDTA; 0.01% Tween-20; and 0.1% BSA) at room temperature. Plates were read 1 h after quenching on an Envision Multilaber Reader and IC50 values were calculated using a sigmoidal fit of the concentration/inhibition response curves. These values were converted to apparent Ki values using the Cheng-Prusoff relationship.
Alternatively, 4 nM ALK (Millipore) and 50 μM ATP were pre-incubated for 30 min at room temperate in 384 well plates (Corning 3676) in 2.5× reaction buffer (125 nM SEB from Cisbio Bioassays, 12.5 mM MgCl2, 5 mM MnCl2, and 2.5 mM DTT). Reactions were initiated by the addition of 4 μl ALK-ATP mixture to 2 μl compounds (2% DMSO) and 4 μl TK-substrate biotin (Cisbio Bioassays). After incubation for 1 h at room temperature, reactions were quenched in 10 μl stop buffer (Cisbio detection buffer containing Streptavididn-XL665 and Eu-Cryptate PT66 monoclonal antibody). Plates were read 1 h after quenching on an Envision Multilaber Reader and IC50 values were calculated using a sigmoidal fit of the concentration/inhibition response curves. These values were converted to apparent Ki values using the Cheng-Prusoff relationship. Results are shown in Table 1 A correlates to an Ki=<100 nM, B correlates to an Ki between 100 nM and 1 μM, C correlates to an Ki=>1 μM.

T1 sequence (Q9UM73 19-1620): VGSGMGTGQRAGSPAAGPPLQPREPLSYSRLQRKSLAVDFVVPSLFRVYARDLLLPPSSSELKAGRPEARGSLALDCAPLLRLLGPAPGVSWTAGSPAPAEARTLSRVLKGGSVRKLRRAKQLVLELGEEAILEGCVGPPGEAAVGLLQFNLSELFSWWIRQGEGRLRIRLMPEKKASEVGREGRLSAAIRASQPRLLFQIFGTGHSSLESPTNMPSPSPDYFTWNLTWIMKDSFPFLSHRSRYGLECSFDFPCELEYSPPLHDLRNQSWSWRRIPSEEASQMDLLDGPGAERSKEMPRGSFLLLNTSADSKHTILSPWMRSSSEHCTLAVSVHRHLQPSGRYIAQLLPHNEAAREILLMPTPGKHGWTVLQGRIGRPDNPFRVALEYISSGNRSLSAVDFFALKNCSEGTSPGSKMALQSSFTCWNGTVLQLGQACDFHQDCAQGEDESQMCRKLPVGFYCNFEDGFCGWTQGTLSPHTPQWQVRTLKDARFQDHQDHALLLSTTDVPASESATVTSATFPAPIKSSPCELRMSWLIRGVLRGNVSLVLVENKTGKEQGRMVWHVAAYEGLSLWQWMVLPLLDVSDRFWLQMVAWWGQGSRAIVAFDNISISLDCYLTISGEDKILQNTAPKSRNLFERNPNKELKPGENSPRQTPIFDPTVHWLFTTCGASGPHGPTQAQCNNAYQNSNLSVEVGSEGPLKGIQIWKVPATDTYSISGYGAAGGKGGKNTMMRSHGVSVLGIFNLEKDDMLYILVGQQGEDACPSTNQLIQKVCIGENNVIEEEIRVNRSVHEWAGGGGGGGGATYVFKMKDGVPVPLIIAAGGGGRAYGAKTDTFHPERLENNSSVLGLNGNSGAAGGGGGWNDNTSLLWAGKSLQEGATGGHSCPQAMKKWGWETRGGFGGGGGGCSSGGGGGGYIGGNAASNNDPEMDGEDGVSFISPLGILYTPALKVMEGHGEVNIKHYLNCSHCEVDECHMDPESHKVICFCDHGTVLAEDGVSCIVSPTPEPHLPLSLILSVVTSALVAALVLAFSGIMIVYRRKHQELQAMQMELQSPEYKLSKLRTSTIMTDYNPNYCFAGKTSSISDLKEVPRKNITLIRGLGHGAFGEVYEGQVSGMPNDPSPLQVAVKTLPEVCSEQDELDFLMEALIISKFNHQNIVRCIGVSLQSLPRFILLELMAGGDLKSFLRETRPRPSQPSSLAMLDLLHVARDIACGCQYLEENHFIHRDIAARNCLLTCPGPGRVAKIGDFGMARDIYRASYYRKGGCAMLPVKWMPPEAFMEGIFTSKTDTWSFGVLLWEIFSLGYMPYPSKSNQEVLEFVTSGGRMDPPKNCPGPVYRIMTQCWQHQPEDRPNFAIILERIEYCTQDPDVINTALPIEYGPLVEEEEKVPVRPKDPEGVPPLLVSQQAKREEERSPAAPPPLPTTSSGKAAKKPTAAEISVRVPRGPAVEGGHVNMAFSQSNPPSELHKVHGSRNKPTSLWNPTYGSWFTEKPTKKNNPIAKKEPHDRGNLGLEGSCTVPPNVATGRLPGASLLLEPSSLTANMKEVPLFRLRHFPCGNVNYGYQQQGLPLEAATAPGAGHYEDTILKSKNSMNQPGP

Row | Ki | SMILES
1 | < 100 nM | COc1cc(N2CCNCC2)ccc1Nc1cc(Cc2cc(F)ccc2Cl)cnc1C(N)=O [Example 41, 5-(2-chloro-5-fluorobenzyl)-3-{[2-methoxy-4-(piperazin-1-yl)phenyl]amino}pyridine-2-carboxamide]
2 | > 1000 nM | CN1CCN(c2ccc(Nc3cc(/C=C/c4ccccc4)cnc3C(N)=O)cc2)CC1 [Example 56, 3-{[4-(4-methylpiperazin-1-yl)phenyl]amino}-5-[(E)-2-phenylvinyl]pyridine-2-carboxamide]
3 | 100 to 1000 nM | CN1CCN(c2ccc(Nc3cc(Nc4ccccc4S(=O)(=O)N(C)C)cnc3C(N)=O)cc2)CC1 [Example 71, 5-{[2-(dimethylsulfamoyl)phenyl]amino}-3-{[4-(4-methylpiperazin-1-yl)phenyl]amino}pyridine-2-carboxamide]
4 | < 100 nM | CN1CCN(c2ccc(Nc3cc(Cc4cccc(F)c4)cnc3C(N)=O)cc2)CC1 [Example 14, 5-(3-fluorobenzyl)-3-{[4-(4-methylpiperazin-1-yl)phenyl]amino}pyridine-2-carboxamide]
5 | 100 to 1000 nM | Cc1ccc(Cc2cnc(C(N)=O)c(Nc3ccc(N4CCN(C)CC4)cc3)c2)cc1 [Example 29, 5-(4-methylbenzyl)-3-{[4-(4-methylpiperazin-1-yl)phenyl]amino}pyridine-2-carboxamide]
6 | 100 to 1000 nM | CN1CCN(c2ccc(Nc3cc(C(C)(C)c4cccc(F)c4)cnc3C(N)=O)cc2)CC1 [Example 35, 5-[2-(3-fluorophenyl)propan-2-yl]-3-{[4-(4-methylpiperazin-1-yl)phenyl]amino}pyridine-2-carboxamide]
7 | 100 to 1000 nM | Cc1ccccc1-c1cnc(C(N)=O)c(Nc2ccc(N3CCN(C)CC3)cc2)c1 [Example 49, 5-(2-methylphenyl)-3-{[4-(4-methylpiperazin-1-yl)phenyl]amino}pyridine-2-carboxamide]
8 | 100 to 1000 nM | COc1cc(N2CCNCC2)ccc1Nc1cc(Cc2c(F)ccc(F)c2Cl)cnc1C(N)=O [Example 48, 5-(2-chloro-3,6-difluorobenzyl)-3-{[2-methoxy-4-(piperazin-1-yl)phenyl]amino}pyridine-2-carboxamide]
9 | 100 to 1000 nM | CN1CCN(c2ccc(Nc3cc(Cc4ccccc4)cnc3C(N)=O)cc2)CC1 [Example 3, 5-benzyl-3-{[4-(4-methylpiperazin-1-yl)phenyl]amino}pyridine-2-carboxamide]
10 | 100 to 1000 nM | COc1ccccc1Cc1cnc(C(N)=O)c(Nc2ccc(N3CCN(C)CC3)cc2)c1 [Example 28, 5-(2-methoxybenzyl)-3-{[4-(4-methylpiperazin-1-yl)phenyl]amino}pyridine-2-carboxamide]
11 | 100 to 1000 nM | CN1CCN(c2ccc(Nc3cc(-c4cccc(NS(=O)(=O)CC(F)(F)F)c4)cnc3C(N)=O)cc2)CC1 [Example 65, 3-{[4-(4-methylpiperazin-1-yl)phenyl]amino}-5-(3-{[(2,2,2-trifluoroethyl)sulfonyl]amino}phenyl)pyridine-2-carboxamide]
